The values below come from US8147818B2, “Hepatitis C virus inhibitors” (Bristol-Myers Squibb Company, priority 2008, dated 2012).

The test relates to HCV 1b-377-neo replicon cells. In words: HCV Replicon assay, HCV 1b-377-neo replicon cells. In kind it is cell-based, HCV 1b genotype. As to conditions: Hepatitis C virus. Here is the method:
An HCV Replicon assay was utilized in the present disclosure, and was prepared, conducted and validated as described in commonly owned PCT/US2006/022197 and in O'Boyle et. al. Antimicrob Agents Chemother. 2005 April; 49(4):1346-53.
HCV 1b-377-neo replicon cells were used to test the currently described compound series as well as cells resistant to compound A containing a Y2065H mutation in NS5A (described in application PCT/US2006/022197). The compounds tested were determined to have more than 10-fold less inhibitory activity on cells containing the mutation than wild-type cells indicating a related mechanism of action between the two compound series. Thus, the compounds of the present disclosure can be effective to inhibit the function of the HCV NS5A protein and are understood to be as effective in combinations as previously described in application PCT/US2006/022197 and commonly owned WO/O4014852. Further, the compounds of the present disclosure can be effective against the HCV 1b genotype. It should also be understood that the compounds of the present disclosure can inhibit multiple genotypes of HCV. […] In one embodiment compounds of the present disclosure are active against the 1a, 1b, 2a, 2b, 3a, 4a, and 5a genotypes.

[1] abbreviates: read-out: EC50 against HCV 1b (Activity or Range), range class.

Like-named read-outs stand apart in the source and are kept apart here.

Regarding `COC(=O)N[C@H](C(=O)N[C@@H](C)c1nc2c([nH]1)CCCc1cc(-c3ccc(-c4cnc([C@@H]5CCCN5C(=O)[C@@H](NC(=O)OC)C(C)C)[nH]4)cc3)ccc1-2)C(C)C` [Example 22c], the EC50 under setting [1] lay in the range of 1 to 100 pM.

For `COC(=O)N[C@H](C(=O)N(C)[C@@H](C)c1nc2c([nH]1)CCOc1cc(-c3ccc(-c4cnc([C@@H]5CCCN5C(=O)[C@@H](NC(=O)OC)C(C)C)[nH]4)cc3)ccc1-2)C(C)C` [Example 22b.2], the EC50 under setting [1] was 1 to 100 pM.

With `CCN(CC)[C@@H](C(=O)N1[C@@H]2C[C@@H]2C[C@H]1c1ncc(-c2ccc(-c3ccc4c(c3)CCCc3[nH]c([C@@H]5C[C@H]6C[C@H]6N5C(=O)[C@@H](c5ccccc5)N(CC)CC)nc3-4)cc2)[nH]1)c1ccccc1` [Example 22c.3], the EC50 under setting [1] fell in the range of 1 to 100 pM.

Consider `COC(=O)N[C@H](C(=O)N1[C@@H]2C[C@@H]2C[C@H]1c1ncc(-c2ccc(-c3ccc4c(ccc5[nH]c([C@@H]6C[C@H]7C[C@H]7N6C(=O)[C@@H](NC(=O)OC)C(C)C)nc54)c3)cc2F)[nH]1)C(C)C` [Example 22v.1], for which the EC50 under setting [1] fell in the range of 1 to 100 pM.

For `CCN(CC)[C@@H](C(=O)N1[C@@H]2C[C@@H]2C[C@H]1c1ncc(-c2ccc(-c3ccc4c(ccc5[nH]c([C@@H]6C[C@H]7C[C@H]7N6C(=O)[C@@H](c6ccccc6)N(CC)CC)nc54)c3)cc2F)[nH]1)c1ccccc1` [Example 22v.1a], the half-maximal effective concentration (EC50) under setting [1] lay in the range of 1 to 100 pM.

Consider `CCN(CC)[C@@H](C(=O)N1CCC[C@H]1c1ncc(-c2ccc(-c3ccc4c(c3)CCCCc3[nH]c([C@@H]5CCCN5C(=O)[C@@H](c5ccccc5)N(CC)CC)nc3-4)cc2)[nH]1)c1ccccc1` [Example 22x.1a], for which the EC50 under setting [1] fell in the range of 1 to 100 pM.

As to `COC(=O)N[C@H](C(=O)N1[C@@H]2C[C@@H]2C[C@H]1c1nc2c([nH]1)-c1ccc(-c3ccc4c(ccc5[nH]c([C@@H]6C[C@H]7C[C@H]7N6C(=O)[C@@H](NC(=O)OC)C(C)C)nc54)c3)cc1CC2)C(C)C` [Example 22u.4], the EC50 under setting [1] was in the range of 1 to 100 pM.

`COC(=O)N[C@@H](C)C(=O)N1CCC[C@H]1c1ncc(-c2ccc(-c3ccc4c(c3)CCCc3[nH]c([C@@H]5CCCN5C(=O)[C@@H](NC(=O)OC)C(C)C)nc3-4)cc2)[nH]1` [Example 24.b]: the EC50 under setting [1] is 1 to 100 pM.

With `COC(=O)N[C@H](C(=O)N1[C@@H]2C[C@@H]2C[C@H]1c1nc2ccc3cc(-c4ccc5c(ccc6[nH]c([C@@H]7C[C@H]8C[C@H]8N7C(=O)C(c7ccccc7)N7C8CCC7CC8)nc65)c4)ccc3c2[nH]1)C(C)C` (some centres unmarked) [Example 24.2d], the EC50 under setting [1] was in the range of 1 to 100 pM.

As for `COC(=O)N[C@H](C(=O)N1[C@@H]2C[C@@H]2C[C@H]1c1nc2c(ccc3cc(-c4ccc5c(ccc6nc([C@@H]7C[C@H]8C[C@H]8N7C(=O)[C@@H](NC(=O)OC)C(C)C)[nH]c65)c4)ccc32)[nH]1)C(C)C` [Example 22u.5], the EC50 under setting [1] is 1 to 100 pM.

As to `CCN(CC)[C@@H](C(=O)N1[C@@H]2C[C@@H]2C[C@H]1c1nc2c(ccc3cc(-c4ccc5c(ccc6nc([C@@H]7C[C@H]8C[C@H]8N7C(=O)[C@@H](NC(=O)OC)C(C)C)[nH]c65)c4)ccc32)[nH]1)c1ccccc1` [Example 24.2], the EC50 under setting [1] is 1 to 100 pM.

On to `COC(=O)N[C@H](C(=O)N1CCC[C@H]1c1ncc(-c2ccc(-c3ccc4c(c3)CCCc3[nH]c([C@@H]5CCCN5C(=O)[C@@H](NC(=O)OC)C(C)C)nc3-4)cc2F)[nH]1)C(C)C` [Example 22g], for which the EC50 (read-out: EC50 against HCV 1b (Activity or Range)) is 1 pM.

Take `COC(=O)N[C@H](C(=O)N1CCC[C@H]1c1nc2c([nH]1)CCCc1cc(-c3ccc(-c4cnc([C@@H]5CCCN5C(=O)CN(C)C)[nH]4)cc3)ccc1-2)C(C)C` [Example 24.a]: under setting [1], the EC50 fell in the range of 1 to 100 pM.

For the molecule `COC(=O)N[C@H](C(=O)N1CCC[C@H]1c1nc2c([nH]1)CCCc1cc(-c3ccc(-c4[nH]c([C@@H]5CCCN5C(=O)[C@@H](NC(=O)OC)C(C)C)nc4CC(F)(F)F)cc3)ccc1-2)C(C)C` [Example 22a.2], the EC50 under setting [1] lay in the range of 1 to 100 pM.
